In paper PMC10930102 (Journal of Enzyme Inhibition and Medicinal Chemistry, 2024):
Like-named read-outs stand apart in the source and are kept apart here.

Assays:
c-Src = molecular target: T1, c-Src (Homo sapiens, UniProt P12931); set-up: method as in PMID 22734674; conditions: cited from earlier work
T1 construct: purchased Reaction Biology Corporation

IGF1R = molecular target: T2, IGF1R (Homo sapiens, UniProt P08069); set-up: method as in PMID 22734674; conditions: cited from earlier work
T2 construct: purchased Reaction Biology Corporation

ALK = molecular target: T3, ALK (Homo sapiens, UniProt Q9UM73); assay: ALK in vitro enzymatic assay (radioisotope P81 filter-binding, Reaction Biology); format: biochemical
T3 construct: purchased Reaction Biology Corporation

HDAC6 = molecular target: T4, HDAC6 (Homo sapiens, UniProt Q9UBN7); assay: HDAC inhibition assay (fluorogenic peptide, Reaction Biology); format: biochemical; conditions: tested once, ten-dose starting at 30 µM
T4 construct: purchased Reaction Biology Corporation; host or cells: baculovirus expression system in SF9 cells
T4 sequence (Q9UBN7 1-1215): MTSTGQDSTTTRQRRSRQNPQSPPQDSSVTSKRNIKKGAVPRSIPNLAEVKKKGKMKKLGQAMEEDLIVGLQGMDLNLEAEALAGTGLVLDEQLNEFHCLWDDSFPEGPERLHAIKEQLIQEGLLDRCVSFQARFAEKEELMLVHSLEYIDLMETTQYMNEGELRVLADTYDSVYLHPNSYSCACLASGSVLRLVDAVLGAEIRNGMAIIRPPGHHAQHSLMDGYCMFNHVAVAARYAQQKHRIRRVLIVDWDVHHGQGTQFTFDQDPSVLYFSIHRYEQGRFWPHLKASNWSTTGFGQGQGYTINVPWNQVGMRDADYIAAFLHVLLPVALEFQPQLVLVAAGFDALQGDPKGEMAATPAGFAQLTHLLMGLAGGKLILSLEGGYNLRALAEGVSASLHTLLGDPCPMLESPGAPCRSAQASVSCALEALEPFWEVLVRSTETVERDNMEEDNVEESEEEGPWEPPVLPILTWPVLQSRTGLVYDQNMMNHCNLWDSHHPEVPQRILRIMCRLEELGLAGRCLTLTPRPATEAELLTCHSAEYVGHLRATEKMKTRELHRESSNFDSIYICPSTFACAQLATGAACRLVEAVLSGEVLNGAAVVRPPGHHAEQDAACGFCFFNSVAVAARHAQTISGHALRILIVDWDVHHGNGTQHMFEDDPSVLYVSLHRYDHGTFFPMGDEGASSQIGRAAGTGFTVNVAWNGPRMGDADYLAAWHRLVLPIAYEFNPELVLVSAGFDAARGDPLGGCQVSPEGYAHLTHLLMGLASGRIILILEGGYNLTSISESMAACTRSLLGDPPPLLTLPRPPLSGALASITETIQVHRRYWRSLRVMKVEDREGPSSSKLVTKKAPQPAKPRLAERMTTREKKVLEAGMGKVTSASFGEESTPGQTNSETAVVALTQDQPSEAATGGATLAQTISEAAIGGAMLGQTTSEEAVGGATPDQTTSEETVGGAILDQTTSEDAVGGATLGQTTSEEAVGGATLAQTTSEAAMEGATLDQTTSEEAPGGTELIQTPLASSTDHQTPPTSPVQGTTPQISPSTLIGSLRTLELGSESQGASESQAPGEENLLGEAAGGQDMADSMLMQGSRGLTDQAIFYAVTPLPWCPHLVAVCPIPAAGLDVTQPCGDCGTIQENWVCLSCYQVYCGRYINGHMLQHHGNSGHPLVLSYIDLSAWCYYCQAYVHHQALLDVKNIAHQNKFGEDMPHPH

[1] = system: protein expression level of HDAC1, HDAC6, or HDAC8; assay: Western blot of HDAC protein expression; format: cell-based, human; conditions: western blot after treatment (supplemental Figure S3)
Method: (§1) Treated cells were washed three times with ice-cold phosphate-buffered saline and lysed in lysis buffer containing 100 mM Tris-HCl, 12 mM sodium deoxycholate, 12 mM sodium lauroylsarcosinate, and protease inhibitor cocktail (BioTools). Cells were heated in lysis buffer at 95 °C for 5 min and then the cell membrane was broken up by sonication (Bioruptor). Cellular debris and unbroken cells were removed by centrifugation (12,500 × g for 30 min, 4 °C). Protein concentration was determined using the bicinchoninic acid assay (Thermo). Cell extracts (20 μg) were resolved by 12% sodium dodecyl sulfate-polyacrylamide gel electrophoresis (SDS-PAGE), transferred to PVDF membranes, and probed separately with antibodies for Ac-histone H3, Ac-α-tubulin, histone H3, α-tubulin, HDAC1, HDAC6, HDAC8 and GAPDH. The antibodies of GAPDH, HDAC1, and HDAC8 were purchased from ABclonal and all other antibodies were from Cell Signalling Technology. Antibody signals were detected using an enhanced chemiluminescence system.
Figure S3. Western blots of HDAC1, HDAC6, and HDAC8 after drug treatment and vehicle control
activity was assessed by MTS assay, and the concentration of inhibitors was determined to be half of their
was tested five times, and the results were normalized to 1. (blank) […]

H2228 = assay: SRB antiproliferation assay; format: cell-based; conditions: Homo sapiens, NCI-H2228, 48 h, ALK-addicted cells, read-out: Antiproliferative activity (IC50) H2228
HDAC8 = molecular target: T5, HDAC8 (Homo sapiens, UniProt Q9BY41); assay: HDAC inhibition assay (fluorogenic diacylpeptide, Reaction Biology); format: biochemical; conditions: tested once, ten-dose starting at 30 µM
T5 construct: purchased Reaction Biology Corporation; host or cells: baculovirus expression system in SF9 cells
T5 sequence (Q9BY41 1-377): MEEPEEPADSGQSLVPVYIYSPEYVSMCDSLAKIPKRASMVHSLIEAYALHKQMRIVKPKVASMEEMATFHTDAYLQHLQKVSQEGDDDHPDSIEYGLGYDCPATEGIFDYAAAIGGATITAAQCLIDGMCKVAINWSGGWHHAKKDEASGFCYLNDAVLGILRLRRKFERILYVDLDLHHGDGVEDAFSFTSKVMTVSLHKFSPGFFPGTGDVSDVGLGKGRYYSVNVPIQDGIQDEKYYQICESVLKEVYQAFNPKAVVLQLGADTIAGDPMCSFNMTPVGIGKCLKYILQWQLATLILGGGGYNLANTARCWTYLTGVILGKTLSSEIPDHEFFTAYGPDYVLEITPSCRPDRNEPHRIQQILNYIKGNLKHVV

[2] = system: phosphorylation level of Y1604 on ALK; assay: Western blot of ALK phosphorylation in H2228 cells; format: cell-based, human; conditions: 6 h, 3b 2 µM, 3c 4 µM
Description: (§2) Figure 4. Effect of test compounds on H2228 cells. […] (A) Western blots of phosphorylated tyrosine residue 1640 on ALK as well as acetylated (Ac) α-tubulin and histone H3 with their corresponding total proteins for normalisation. GAPDH was used as a loading control. (B) Quantification of western blotting results using Image J. Error bars indicate ± S.D.E. *p-Value ≤ 0.05, **p-value ≤ 0.01, ***p-value ≤ 0.001.
as §1

HDAC1 = molecular target: T6, HDAC1 (Homo sapiens, UniProt Q13547); assay: HDAC inhibition assay (fluorogenic peptide, Reaction Biology); format: biochemical; conditions: tested once, ten-dose starting at 30 µM
T6 construct: purchased Reaction Biology Corporation; host or cells: baculovirus expression system in SF9 cells

U87MG = assay: SRB antiproliferation assay; format: cell-based; conditions: Homo sapiens, U-87 MG, 48 h, read-out: Antiproliferative activity (IC50) U87MG
A549 = assay: SRB antiproliferation assay; format: cell-based; conditions: Homo sapiens, 48 h, read-out: Antiproliferative activity (IC50) A549
HDAC11 = molecular target: T7, HDAC11 (Homo sapiens, UniProt Q96DB2); assay: HDAC inhibition assay (fluorogenic peptide, Reaction Biology); format: biochemical; conditions: tested once, ten-dose starting at 30 µM
T7 construct: purchased Reaction Biology Corporation; host or cells: baculovirus expression system in SF9 cells
T7 sequence (Q96DB2 1-347): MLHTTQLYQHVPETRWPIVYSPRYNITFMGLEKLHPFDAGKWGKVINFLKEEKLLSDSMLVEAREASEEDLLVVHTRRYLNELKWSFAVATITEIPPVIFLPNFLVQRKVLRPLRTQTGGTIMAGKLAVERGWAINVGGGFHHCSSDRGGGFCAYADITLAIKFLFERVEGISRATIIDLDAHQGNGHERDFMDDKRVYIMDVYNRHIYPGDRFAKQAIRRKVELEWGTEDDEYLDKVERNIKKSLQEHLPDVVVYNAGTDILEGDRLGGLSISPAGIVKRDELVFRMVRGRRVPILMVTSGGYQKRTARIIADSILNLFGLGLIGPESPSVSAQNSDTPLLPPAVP

MCF7 = assay: SRB antiproliferation assay; format: cell-based; conditions: Homo sapiens, 48 h, read-out: Antiproliferative activity (IC50) MCF7
CYP1A2 = molecular target: T8, CYP1A2 (Homo sapiens, UniProt P05177); assay: CYP450 inhibition assay; format: in vitro ADME; conditions: human recombinant enzyme
T8 construct: purchased Reaction Biology Corporation; host or cells: CYP cDNA baculovirus expression systems

CYP2C19 = molecular target: T9, CYP2C19 (Homo sapiens, UniProt P33261); assay: CYP450 inhibition assay; format: in vitro ADME; conditions: human recombinant enzyme
T9 construct: purchased Reaction Biology Corporation; host or cells: CYP cDNA baculovirus expression systems
Method: Assays were performed by Reaction Biology Corporation. […] CYP assays used human recombinant CYP1A2, CYP2C9, CYP2C19, CYP2D6, and CYP3A4 expressed in CYP cDNA baculovirus expression systems. […] Substrates used were 3-cyano-7-ethoxycoumarin for CYP1A2, 2C19, and 2D6; Vivid OOMR Substrate for CYP2C9; and Vivid BOMR Substrate for CYP3A4. hERG inhibition assays involved a binding competition between the tested compounds and a fluorescently labelled compound tracer (Predictor hERG Tracer Red) for membrane-bound hERG (Predictor hERG Membrane). E-4031 served as the positive control.

[3] = system: acetylated histone H3, a substrate of class I HDAC; assay: Western blot of acetylated histone H3 in H2228 cells; format: cell-based, human; conditions: 6 h, 3b 2 µM
Description: as §2
as §1, with “The antibodies of GAPDH, HDAC1, and HDAC8 were purchased from ABclonal and all other antibodies were from Cell Signalling Technology.” left out

[4] = 20 μM ATP, ten-dose IC50 mode, duplicate, average

T6 sequence (Q13547 whole entry): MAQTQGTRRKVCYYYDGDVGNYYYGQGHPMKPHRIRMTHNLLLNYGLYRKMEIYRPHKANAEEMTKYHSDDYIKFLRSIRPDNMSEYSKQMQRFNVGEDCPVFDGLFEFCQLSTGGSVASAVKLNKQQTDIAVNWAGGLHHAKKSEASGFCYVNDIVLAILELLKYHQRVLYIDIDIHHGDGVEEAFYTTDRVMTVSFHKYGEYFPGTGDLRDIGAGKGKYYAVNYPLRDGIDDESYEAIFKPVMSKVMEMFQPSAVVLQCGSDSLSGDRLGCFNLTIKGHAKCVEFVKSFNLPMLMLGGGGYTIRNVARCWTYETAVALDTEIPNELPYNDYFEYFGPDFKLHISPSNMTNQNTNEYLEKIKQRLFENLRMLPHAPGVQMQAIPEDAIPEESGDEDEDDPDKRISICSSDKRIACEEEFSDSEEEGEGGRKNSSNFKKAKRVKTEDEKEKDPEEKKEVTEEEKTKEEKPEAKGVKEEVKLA
T3 sequence (Q9UM73 19-1620): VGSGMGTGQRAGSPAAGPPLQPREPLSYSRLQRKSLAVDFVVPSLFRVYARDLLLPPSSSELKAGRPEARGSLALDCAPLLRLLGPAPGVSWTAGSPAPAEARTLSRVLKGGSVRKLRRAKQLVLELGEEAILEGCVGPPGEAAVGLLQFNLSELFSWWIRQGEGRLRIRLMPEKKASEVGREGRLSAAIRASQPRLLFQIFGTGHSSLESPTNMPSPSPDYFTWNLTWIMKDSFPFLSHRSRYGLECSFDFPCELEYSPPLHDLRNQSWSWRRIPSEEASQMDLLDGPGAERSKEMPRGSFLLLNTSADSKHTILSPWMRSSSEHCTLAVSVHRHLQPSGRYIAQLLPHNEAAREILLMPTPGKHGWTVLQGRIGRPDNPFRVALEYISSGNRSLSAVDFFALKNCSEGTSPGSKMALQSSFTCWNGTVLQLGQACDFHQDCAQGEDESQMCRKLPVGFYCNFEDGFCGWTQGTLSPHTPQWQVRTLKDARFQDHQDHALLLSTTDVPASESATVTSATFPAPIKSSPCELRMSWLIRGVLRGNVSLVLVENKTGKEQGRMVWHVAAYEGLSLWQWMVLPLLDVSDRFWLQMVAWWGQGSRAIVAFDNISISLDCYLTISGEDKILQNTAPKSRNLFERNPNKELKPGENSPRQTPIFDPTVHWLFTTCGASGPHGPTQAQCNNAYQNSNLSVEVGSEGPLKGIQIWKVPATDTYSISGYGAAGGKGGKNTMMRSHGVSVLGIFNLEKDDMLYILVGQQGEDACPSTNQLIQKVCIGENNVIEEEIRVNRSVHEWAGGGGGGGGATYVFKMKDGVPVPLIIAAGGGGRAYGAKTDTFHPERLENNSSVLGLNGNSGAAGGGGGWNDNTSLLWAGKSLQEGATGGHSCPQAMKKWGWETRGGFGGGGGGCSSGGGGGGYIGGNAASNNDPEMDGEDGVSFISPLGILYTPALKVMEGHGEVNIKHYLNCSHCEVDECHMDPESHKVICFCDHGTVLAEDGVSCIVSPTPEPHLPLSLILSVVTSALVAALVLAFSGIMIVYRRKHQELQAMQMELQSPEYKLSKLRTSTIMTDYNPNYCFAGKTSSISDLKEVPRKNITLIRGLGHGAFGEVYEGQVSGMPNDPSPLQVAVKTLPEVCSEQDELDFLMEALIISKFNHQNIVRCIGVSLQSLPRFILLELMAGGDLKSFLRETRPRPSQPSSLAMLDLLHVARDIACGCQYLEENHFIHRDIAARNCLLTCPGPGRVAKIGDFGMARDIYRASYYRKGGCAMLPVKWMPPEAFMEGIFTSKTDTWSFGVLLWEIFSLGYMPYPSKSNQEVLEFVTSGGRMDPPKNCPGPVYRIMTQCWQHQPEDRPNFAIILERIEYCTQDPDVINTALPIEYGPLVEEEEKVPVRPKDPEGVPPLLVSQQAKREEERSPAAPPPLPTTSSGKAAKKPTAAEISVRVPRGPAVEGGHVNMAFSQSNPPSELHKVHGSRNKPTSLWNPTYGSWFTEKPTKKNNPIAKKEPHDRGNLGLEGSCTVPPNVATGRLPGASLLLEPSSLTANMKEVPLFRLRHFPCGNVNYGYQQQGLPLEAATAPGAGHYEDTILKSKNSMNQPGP
T2 sequence (P08069 31-1367): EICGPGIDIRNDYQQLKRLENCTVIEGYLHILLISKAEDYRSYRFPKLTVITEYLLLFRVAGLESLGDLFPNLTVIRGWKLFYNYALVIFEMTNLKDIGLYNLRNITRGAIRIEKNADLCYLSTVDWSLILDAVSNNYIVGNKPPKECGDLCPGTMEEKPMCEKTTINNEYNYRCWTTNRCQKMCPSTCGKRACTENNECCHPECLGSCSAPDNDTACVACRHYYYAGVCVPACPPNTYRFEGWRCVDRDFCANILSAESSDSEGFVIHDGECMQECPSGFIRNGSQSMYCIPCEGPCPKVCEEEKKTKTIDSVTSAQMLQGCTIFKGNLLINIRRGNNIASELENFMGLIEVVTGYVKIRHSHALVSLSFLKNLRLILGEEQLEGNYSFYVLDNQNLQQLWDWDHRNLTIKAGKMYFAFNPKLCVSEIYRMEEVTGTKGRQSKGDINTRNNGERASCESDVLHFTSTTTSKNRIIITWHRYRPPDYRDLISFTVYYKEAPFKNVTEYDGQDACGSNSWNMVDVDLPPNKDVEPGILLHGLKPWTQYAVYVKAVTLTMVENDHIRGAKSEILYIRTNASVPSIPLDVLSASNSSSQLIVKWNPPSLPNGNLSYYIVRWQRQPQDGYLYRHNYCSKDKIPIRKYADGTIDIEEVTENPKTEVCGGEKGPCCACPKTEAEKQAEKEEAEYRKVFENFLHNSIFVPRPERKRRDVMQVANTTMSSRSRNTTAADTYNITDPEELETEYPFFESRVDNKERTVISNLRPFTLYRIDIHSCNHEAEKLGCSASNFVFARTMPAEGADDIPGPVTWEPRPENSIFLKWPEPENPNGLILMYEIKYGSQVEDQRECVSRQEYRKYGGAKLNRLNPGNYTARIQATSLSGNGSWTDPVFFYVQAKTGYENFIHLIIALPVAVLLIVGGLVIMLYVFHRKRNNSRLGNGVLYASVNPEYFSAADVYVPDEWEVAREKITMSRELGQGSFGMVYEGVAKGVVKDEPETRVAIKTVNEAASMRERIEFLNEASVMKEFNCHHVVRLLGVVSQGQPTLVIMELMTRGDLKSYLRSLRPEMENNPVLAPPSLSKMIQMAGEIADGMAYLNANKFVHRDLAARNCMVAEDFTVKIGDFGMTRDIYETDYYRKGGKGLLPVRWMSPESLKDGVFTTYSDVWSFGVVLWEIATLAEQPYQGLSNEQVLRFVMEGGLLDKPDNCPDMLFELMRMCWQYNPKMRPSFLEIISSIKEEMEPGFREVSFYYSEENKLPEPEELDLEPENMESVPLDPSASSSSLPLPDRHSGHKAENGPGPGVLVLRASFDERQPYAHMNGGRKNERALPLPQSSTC
T1 sequence (P12931 whole entry): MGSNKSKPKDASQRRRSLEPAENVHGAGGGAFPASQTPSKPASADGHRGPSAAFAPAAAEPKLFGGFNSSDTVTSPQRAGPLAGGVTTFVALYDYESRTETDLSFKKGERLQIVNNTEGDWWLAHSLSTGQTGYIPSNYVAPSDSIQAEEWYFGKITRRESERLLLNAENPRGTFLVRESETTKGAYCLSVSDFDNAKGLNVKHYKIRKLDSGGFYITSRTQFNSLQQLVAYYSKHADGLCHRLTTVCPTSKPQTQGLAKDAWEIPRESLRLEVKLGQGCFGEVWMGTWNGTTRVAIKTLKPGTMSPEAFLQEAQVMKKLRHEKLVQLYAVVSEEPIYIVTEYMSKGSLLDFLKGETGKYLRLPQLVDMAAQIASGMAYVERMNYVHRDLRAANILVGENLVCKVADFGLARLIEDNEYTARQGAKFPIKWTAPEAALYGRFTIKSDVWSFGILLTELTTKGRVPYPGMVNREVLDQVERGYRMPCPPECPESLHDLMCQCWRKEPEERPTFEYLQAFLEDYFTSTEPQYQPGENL
T9 sequence (P33261 whole entry): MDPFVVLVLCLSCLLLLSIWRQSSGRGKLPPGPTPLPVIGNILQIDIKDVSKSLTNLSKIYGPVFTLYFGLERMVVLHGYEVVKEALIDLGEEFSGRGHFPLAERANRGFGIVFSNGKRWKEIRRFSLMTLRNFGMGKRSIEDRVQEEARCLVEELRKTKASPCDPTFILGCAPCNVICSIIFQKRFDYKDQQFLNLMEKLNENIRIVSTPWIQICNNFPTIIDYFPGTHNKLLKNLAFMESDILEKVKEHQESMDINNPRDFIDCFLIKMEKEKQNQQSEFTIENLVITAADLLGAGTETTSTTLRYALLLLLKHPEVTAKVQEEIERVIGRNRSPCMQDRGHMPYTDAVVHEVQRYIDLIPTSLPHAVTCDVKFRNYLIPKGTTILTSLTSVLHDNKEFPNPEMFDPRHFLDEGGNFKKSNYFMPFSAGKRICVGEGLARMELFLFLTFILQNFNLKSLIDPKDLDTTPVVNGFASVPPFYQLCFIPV
T8 sequence (P05177 whole entry): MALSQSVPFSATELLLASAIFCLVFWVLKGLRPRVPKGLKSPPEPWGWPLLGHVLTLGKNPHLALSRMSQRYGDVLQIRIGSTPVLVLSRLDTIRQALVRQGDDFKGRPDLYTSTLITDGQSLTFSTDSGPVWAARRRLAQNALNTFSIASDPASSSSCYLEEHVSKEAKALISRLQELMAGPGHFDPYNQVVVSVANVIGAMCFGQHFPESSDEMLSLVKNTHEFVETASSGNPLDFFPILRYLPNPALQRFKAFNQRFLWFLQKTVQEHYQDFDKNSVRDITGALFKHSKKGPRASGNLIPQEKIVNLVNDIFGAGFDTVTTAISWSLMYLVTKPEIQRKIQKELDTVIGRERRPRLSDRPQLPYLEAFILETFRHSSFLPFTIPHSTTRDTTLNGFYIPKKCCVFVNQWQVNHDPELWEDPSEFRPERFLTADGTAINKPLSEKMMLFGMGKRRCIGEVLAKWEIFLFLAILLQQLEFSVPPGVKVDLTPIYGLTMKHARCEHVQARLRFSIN

Structure (SMILES)	IC50 (HDAC6) [µM]	IC50 (ALK; [4]) [µM]	IC50 (H2228) [µM]	IC50 (HDAC8) [µM]	IC50 (HDAC1) [µM]	IC50 (HDAC11) [µM]	other results
CC(C)NC(=O)[C@H]1CC[C@@H](n2/c(=N/C(=O)c3cc(F)cc(F)c3)[nH]c3ccc(CN4CCC(C(C)(C)O)CC4)cc32)CC1 [Compound 1]	–	–	–	–	–	–	IC50 (c-Src): 0.42 µM; IC50 (IGF1R): 0.1 µM
CC(C)NC(=O)CCCn1/c(=N/C(=O)c2ccccc2)[nH]c2cc(Br)ccc21 [Compound 6, (E)-N-(5-Bromo-1–(4-(isopropylamino)-4-oxobutyl)-1H-benzo[d]imidazol-2(3H)-ylidene)benzamide]	–	–	–	–	–	–	inhibition at 10 µM (ALK; single dose at 10 μM, duplicate, average, read-out: ALK relative inhibition of enzymatic activity): 18.8%
CC(C)NC(=O)[C@H]1CC[C@@H](n2/c(=N/C(=O)c3ccccc3)[nH]c3ccc(/C=C/C(=O)NO)cc32)CC1 [Compound 3c, (E)-N-(6-((E)-3-(Hydroxyamino)-3-oxoprop-1-en-1-yl)-1-((1S,4S)-4-(isopropylcarbamoyl)cyclohexyl)-1H-benzo[d]imidazol-2(3H)-ylidene)benzamide]	2.34	0.0052	0.21 ± 0.07	2.87	> 30	> 30	protein expression level of HDAC1, HDAC6, or HDAC8 [1]: not perturbed; IC50 (ALK): 0.015 µM; fold greater ALK inhibition ability (ALK; hydroxamate moved from C-5 to C-6 position (versus 3b)): 3 fold; phosphorylation level of Y1604 on ALK [2]: significantly decreased; IC50 (U87MG): 11.1 ± 0.81 µM; IC50 (A549): 7.26 ± 2.66 µM; IC50 (MCF7): 0.98 ± 0.03 µM
CC(=O)N1CCN(c2ccc(OCC3COC(Cn4ccnc4)(c4ccc(Cl)cc4Cl)O3)cc2)CC1 (centres unmarked) [Ketoconazole, reference compound]	–	–	–	–	–	–	IC50 (CYP1A2): 0.59 µM; IC50 (CYP2C19): 1.3 µM
CC(C)NC(=O)[C@H]1CC[C@@H](n2/c(=N/C(=O)c3ccccc3)[nH]c3cc(NC(=O)CCCCCCC(=O)NO)ccc32)CC1 [Compound 3f]	0.1	0.015	–	2.52	2.29	1.72	–
C[C@@H](Oc1cc(-c2cnn(C3CCNCC3)c2)cnc1N)c1c(Cl)ccc(F)c1Cl [Crizotinib, reference compound]	–	–	0.13 ± 0.05	–	–	–	IC50 (U87MG): 0.048 ± 0.008 µM; IC50 (MCF7): 0.095 ± 0.024 µM
CCCC(=O)/N=c1\[nH]c2cc(/C=C/C(=O)NO)ccc2n1CCCC(=O)NC(C)C [Compound 3e, 4-((E)-2-(butyrylimino)-5-((E)-3-(hydroxyamino)-3-oxoprop-1-en-1-yl)-2,3-dihydro-1H-benzo[d]imidazol-1-yl)-N-isopropylbutanamide]	0.21	> 10	–	1.78	0.84	1.42	–
CCCCc1nc2cc(/C=C/C(=O)NO)ccc2n1CCN(CC)CC [Pracinostat (2), Pracinostat, reference compound]	–	–	0.69 ± 0.05	–	–	–	phosphorylation level of Y1604 on ALK [2]: enhanced the ALK kinase activity; acetylated histone H3 level [3]: highest level of acetylated histone
CC(C)NC(=O)CCCn1/c(=N/C(=O)c2ccccc2)[nH]c2cc(/C=C/C(=O)NO)ccc21 [Compound 3a, (E)-N-(5-((E)-3-(Hydroxyamino)-3-oxoprop-1-en-1-yl)-1–(4-(isopropylamino)-4-oxobutyl)-1H-benzo[d]imidazol-2(3H)-ylidene)benzamide]	0.81	5.75	–	2.95	6.18	9.35	–
CC(C)NC(=O)CCCn1/c(=N/C(=O)c2cc(F)cc(F)c2)[nH]c2cc(/C=C/C(=O)NO)ccc21 [Compound 3d, (E)-3,5-Difluoro-N-(5-((E)-3-(hydroxyamino)-3-oxoprop-1-en-1-yl)-1–(4-(isopropylamino)-4-oxobutyl)-1H-benzo[d]imidazol-2(3H)-ylidene)benzamide]	2.47	3.73	–	7.77	> 30	> 30	–
